From PMC4532424, “The Novel Cyclophilin Inhibitor CPI-431-32 Concurrently Blocks HCV and HIV-1 Infections via a Similar Mechanism of Action” (PLoS ONE, 2015)
Where two headings read alike, the source gives them in different places. Non-standard residues stand in square brackets, D forms with d. Residues, ends and D or L forms follow the SMILES beside them. NMeThr(4R-Me,4-(CH2)6NHAc) = CN[C@H](C(=O)O)[C@H](O)[C@H](C)CCCCCCNC(C)=O; NMeL = CN[C@@H](CC(C)C)C(=O)O; NMeV = CN[C@H](C(=O)O)C(C)C; dNMeA = CN[C@H](C)C(=O)O; Abu = CC[C@H](N)C(=O)O

Columns and labels:
HIV-1 JR-CSF = assay: Established HIV-1 infection of CD4+ T-lymphocytes, single versus daily drug addition, p24 ELISA; type: cell-based; conditions: 2 μM three days post-infection then daily 0.5 μM; after fifteen days
Experimental: CD4+ T-lymphocytes (A) and Huh7.5.1 cells (B) (0.5 x 10^6 cells) (triplicates) were exposed to HIV-1 JR-CSF and HCV JFH-1. Drugs (2 μM) were added 3 h pre-viral exposure (top panels) or 3 days post-viral exposure (bottom panels). Viral replications were monitored by HIV-1 p24 and HCV core ELISAs. C. CD4+ T-lymphocytes (0.5 x 10^6 cells) (triplicates) were exposed to HIV-1 JR-CSF. Drugs were initially added 3 days post-viral exposure (2 μM) and then daily (0.5 μM). Viral replications were monitored by HIV-1 p24 and HCV core ELISAs. […] D. Model for the HIV-1/HCV co-culture system.

[1] = test system: HCV ALV-resistant (D320E/Y321N); assay: HCV Luc-Con1 replicon replication in Huh7.5 cells, luciferase; type: cell-based; conditions: read-out: EC50, inhibition of HCV replication
Experimental: (§1) The GT1b subgenomic firefly luciferase reporter replicon pFK-I389/NS3–3 was provided by R. Bartenschlager. The GT1B subgenomic NS3 (R155Q/A156T), NS5A (L31V, D320E/Y321N, S328P and P313A/P318A), and NS5B (S282T) mutants were created as previously. Half-maximal effective concentration (EC50) measurements were conducted as previously.
(§2) We took advantage of the DAA-resistant HCV genotype 1b Con1 replicons that we previously generated: the NS3 inhibitor-resistant R155Q/A156T NS3, the NS5A inhibitor-resistant L31V NS5A replicon, and the NS5B inhibitor-resistant S282T NS5B replicons. […] EC50 HCV data are expressed in nM whereas EC50 HIV-1 data are expressed in μM.

[2] = test system: HCV CsA-sensitive (P313A/P318A); assay: as above; type: cell-based; conditions: read-out: EC50, inhibition of HCV replication
Experimental: as §1, §2

[3] = test system: HCV CsA-sensitive (S328P); assay: as above; type: cell-based; conditions: read-out: EC50, inhibition of HCV replication
Experimental: as §1, §2

[4] = test system: HCV NS3-resistant (R155Q/A156T); assay: as above; type: cell-based; conditions: read-out: EC50, inhibition of HCV replication
Experimental: as §1, §2

[5] = test system: HCV NS5A-resistant (L31V); assay: as above; type: cell-based; conditions: read-out: EC50, inhibition of HCV replication
Experimental: as §1, §2

[6] = test system: HCV NS5B-resistant (S282T); assay: as above; type: cell-based; conditions: read-out: EC50, inhibition of HCV replication
Experimental: as §1, §2

HCV wild-type (Con1b) = assay: as above; type: cell-based; conditions: 72 h, read-out: EC50, inhibition of HCV replication
Experimental: as §1, §2

[7] = target: CypA-HIV-1 capsid complex (Homo sapiens, UniProt P62937); assay: CypA-HIV-1 capsid interaction ELISA; type: binding; conditions: 16 h at 4°C
Sequence of CypA-HIV-1 capsid complex (P62937 whole entry, one chain of several): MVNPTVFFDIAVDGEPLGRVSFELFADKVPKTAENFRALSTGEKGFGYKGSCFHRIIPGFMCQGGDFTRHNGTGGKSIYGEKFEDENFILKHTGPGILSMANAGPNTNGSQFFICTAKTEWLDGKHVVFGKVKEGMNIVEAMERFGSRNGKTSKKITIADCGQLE
Experimental: Recombinant GST-CypA, full-length HCV NS5A Con1 (pET-Ub-NS5A Con1-His) and HIV-1 capsid NL4.3 (pET-capsid-His) were expressed and purified as described previously. Inhibition of CypA-HCV NS5A and CypA-HIV-1 capsid interactions by the CypI […] were conducted as we described previously.
CypI are thought to inhibit the infection of HIV-1 and HCV mostly by preventing CypA-HIV-1 capsid and CypA-HCV NS5A interactions, respectively. The potency of CypI at inhibiting these interactions was determined using an ELISA assay previously developed in our laboratory. For analyzing CypA-HCV NS5A interactions, recombinant NS5A-His was added to GST-CypA-coated wells for 16 h at 4°C in the absence or presence of CypI, followed by detection of captured NS5A-His with anti-His antibodies. A similar assay was used for CypA-HIV-1 interactions except with recombinant His-tagged HIV-1 capsid.

[8] = Hepatitis C virus, Huh7.5, 72 h

Row | SMILES | Effect on HIV-1 replication (in words) (HIV-1 JR-CSF) | EC50 ([1]; HCV ALV-resistant (D320E/Y321N) replicon, Huh7.5 cells, 72 h) [nM] | EC50 ([2]; HCV CsA-sensitive (P313A/P318A) replicon, Huh7.5 cells, 72 h) [nM] | EC50 ([3]; HCV CsA-sensitive (S328P) replicon, Huh7.5 cells, 72 h) [nM] | EC50 ([4]; HCV NS3-resistant (R155Q/A156T) replicon, Huh7.5 cells, 72 h) [nM] | EC50 ([5]; HCV NS5A-resistant (L31V) replicon, Huh7.5 cells, 72 h) [nM] | EC50 ([6]; HCV NS5B-resistant (S282T) replicon, Huh7.5 cells, 72 h) [nM] | EC50 (HCV wild-type (Con1b)) [nM] | IC50 ([7]; read-out: IC50, inhibition of CypA-HIV-1 capsid interactions) [nM] | IC50 ([7]; Table 2, capsid-His on GST-CypA-coated plates, read-out: IC50, inhibition of capsid binding to CypA) [nM] | EC50 [1, 8] [nM] | EC50 [2, 8] [nM] | EC50 [3, 8] [nM] | EC50 [4, 8] [nM] | EC50 [5, 8] [nM] | EC50 [6, 8] [nM] | EC50 (HCV wild-type (Con1b); Hepatitis C virus) [nM] | IC50 ([7]; IC50, inhibition of CypA-HIV-1 capsid interactions) [nM] | IC50 ([7]; IC50, inhibition of capsid binding to CypA, Table 2, capsid-His on GST-CypA-coated plates) [nM]
1 | CC[C@@H]1NC(=O)[C@H]([C@H](O)[C@H](C)CCCCCCNC(C)=O)N(C)C(=O)[C@H](C(C)C)N(C)C(=O)[C@H](CC(C)C)N(C)C(=O)[C@H](CC(C)C)N(C)C(=O)[C@@H](C)NC(=O)[C@H](C)NC(=O)[C@H](CC(C)C)N(C)C(=O)[C@H](C(C)C)NC(=O)[C@H](CC(C)C)N(C)C(=O)[C@@H](C)N(C)C1=O [CPI-431-32] (cyclo(A[dA][NMeL][NMeL][NMeV][NMeThr(4R-Me,4-(CH2)6NHAc)][Abu][dNMeA][NMeL]V[NMeL])) | almost totally repressed HIV-1 replication | 26.5 ± 3.2 | 4.7 ± 0.2 | 5.1 ± 0.3 | 11.3 ± 0.2 | 8.9 ± 0.4 | 8.3 ± 0.4 | 9.3 ± 0.4 | 210 ± 10 | 230 ± 10 |  |  |  |  |  |  |  |  | 
2 | C/C=C/C[C@@H](C)[C@@H](O)[C@H]1C(=O)N[C@@H](CC)C(=O)N(C)[C@H](C)C(=O)N(CC)[C@@H](C(C)C)C(=O)N[C@@H](C(C)C)C(=O)N(C)[C@@H](CC(C)C)C(=O)N[C@@H](C)C(=O)N[C@H](C)C(=O)N(C)[C@@H](CC(C)C)C(=O)N(C)[C@@H](CC(C)C)C(=O)N(C)[C@@H](C(C)C)C(=O)N1C [ALV, Alisporivir] |  |  |  |  |  |  |  |  |  |  | 44.2 ± 5.8 | 5.2 ± 0.6 | 5.6 ± 1.1 | 17.7 ± 1.9 | 16.5 ± 2.1 | 15.6 ± 2.4 | 16.6 ± 0.8 | 410 ± 50 | 420 ± 110
